Legend:
Type in all cases: functional
Conditions in all cases: read-out: GI
Mycosphaerella arachidis [1] = assay: Fungicidal activity against Mycosphaerella arachidis assessed as growth inhibition at 1 ug/mL
Fusarium graminearum [2] = assay: Fungicidal activity against Fusarium graminearum assessed as growth inhibition at 1 ug/mL
[3] = tested on: Botryosphaeria berengeriana; assay: Fungicidal activity against Botryosphaeria berengeriana assessed as growth inhibition at 50 ug/mL
Fusarium graminearum [4] = assay: Fungicidal activity against Fusarium graminearum assessed as growth inhibition at 50 ug/mL
Fusarium oxysporum [5] = assay: Fungicidal activity against Fusarium oxysporum assessed as growth inhibition at 50 ug/mL
[6] = tested on: Botryosphaeria berengeriana; assay: Fungicidal activity against Botryosphaeria berengeriana assessed as growth inhibition at 1 ug/mL
Mycosphaerella arachidis [7] = assay: Fungicidal activity against Mycosphaerella arachidis assessed as growth inhibition at 50 ug/mL
Alternaria solani [8] = assay: Fungicidal activity against Alternaria solani assessed as growth inhibition at 1 ug/mL
Alternaria solani [9] = assay: Fungicidal activity against Alternaria solani assessed as growth inhibition at 50 ug/mL
Fusarium oxysporum [10] = assay: Fungicidal activity against Fusarium oxysporum assessed as growth inhibition at 1 ug/mL
Fusarium graminearum [11] = assay: Fungicidal activity against Fusarium graminearum assessed as growth inhibition at 5 ug/mL
Mycosphaerella arachidis [12] = assay: Fungicidal activity against Mycosphaerella arachidis assessed as growth inhibition at 5 ug/mL
Fusarium oxysporum [13] = assay: Fungicidal activity against Fusarium oxysporum assessed as growth inhibition at 5 ug/mL
[14] = tested on: Botryosphaeria berengeriana; assay: Fungicidal activity against Botryosphaeria berengeriana assessed as growth inhibition at 5 ug/mL
Alternaria solani [15] = assay: Fungicidal activity against Alternaria solani assessed as growth inhibition at 5 ug/mL

Row | SMILES | inhibition of growth at 1 µg/mL (Mycosphaerella arachidis [1]) | inhibition of growth at 1 µg/mL (Fusarium graminearum [2]) | inhibition of growth at 50 µg/mL [3] | inhibition of growth at 50 µg/mL (Fusarium graminearum [4]) | inhibition of growth at 50 µg/mL (Fusarium oxysporum [5]) | inhibition of growth at 1 µg/mL [6] | inhibition of growth at 50 µg/mL (Mycosphaerella arachidis [7]) | inhibition of growth at 1 µg/mL (Alternaria solani [8]) | inhibition of growth at 50 µg/mL (Alternaria solani [9]) | inhibition of growth at 1 µg/mL (Fusarium oxysporum [10]) | inhibition of growth at 5 µg/mL (Fusarium graminearum [11]) | inhibition of growth at 5 µg/mL (Mycosphaerella arachidis [12]) | inhibition of growth at 5 µg/mL (Fusarium oxysporum [13]) | inhibition of growth at 5 µg/mL [14] | inhibition of growth at 5 µg/mL (Alternaria solani [15])
1 | CNCC(O)(Cn1cncn1)c1ccc(Oc2ccc(Cl)cc2)cc1Cl (stereo not given) | 57.2% | 72.5% | 100% | 98% | 100% | 96% | 99% | 50.3% | 99% | 0% | – | – | – | – | –
2 | OC(Cn1cncn1)(Cn1cncn1)c1ccc(Oc2ccc(Cl)cc2)cc1Cl | 88.1% | 82.6% | 100% | 100% | 99% | 90.3% | 100% | 58.6% | 99% | 62.5% | 100% | 100% | 80.9% | 91% | 84.2%
3 | OCCNCC(O)(Cn1cncn1)c1ccc(Oc2ccc(Cl)cc2)cc1Cl (stereo not given) | – | – | 97.7% | 37.3% | 100% | – | 72.2% | – | 98.5% | – | – | – | – | – | –
4 | OC(/C=C/c1ccc(Cl)cc1)(Cn1cncn1)c1ccc(Oc2ccc(Cl)cc2)cc1Cl (stereo not given) | – | – | 64.1% | 77.2% | 57.1% | – | 95% | – | 76.8% | – | – | – | – | – | –
5 | CC(C)(C)C(O)(CCc1ccc(Cl)cc1)Cn1cncn1 (stereo not given) [TEBUCONAZOLE] | 91% | 86.9% | 100% | 100% | 100% | 68.2% | 100% | 65.5% | 100% | 65.6% | – | – | – | – | –
6 | CN(C)CC(O)(Cn1cncn1)c1ccc(Oc2ccc(Cl)cc2)cc1Cl (stereo not given) | 0% | 4.2% | 100% | 96.9% | 100% | 27.7% | 97.2% | 18.6% | 99.1% | 0% | – | – | – | – | –
7 | OC(Cn1ccnc1)(Cn1cncn1)c1ccc(Oc2ccc(Cl)cc2)cc1Cl (stereo not given) | – | – | 99% | 71.4% | 95% | – | 100% | – | 99% | – | – | – | – | – | –
8 | OC(Cn1ccnc1)(Cn1cncn1)c1ccc(Oc2ccc(F)cc2)cc1Cl (stereo not given) | – | – | 87.9% | 84.3% | 57.1% | – | 100% | – | 73.2% | – | – | – | – | – | –
9 | COCC(O)(Cn1cncn1)c1ccc(Oc2ccc(F)cc2)cc1Cl (stereo not given) | 76.2% | 57.2% | 100% | 100% | 100% | 89.5% | 100% | 96.9% | 100% | 82.7% | – | – | – | – | –
10 | OC(CNC1CCCCC1)(Cn1cncn1)c1ccc(Oc2ccc(Cl)cc2)cc1Cl (stereo not given) | – | – | 100% | 47.5% | 78.9% | – | 75.2% | – | 87.3% | – | – | – | – | – | –
11 | OC(/C=C/c1ccc(Cl)cc1Cl)(Cn1cncn1)c1ccc(Oc2ccc(Cl)cc2)cc1Cl (stereo not given) | – | – | 58.7% | 37.2% | 50.9% | – | 97.8% | – | 54.4% | – | – | – | – | – | –
12 | OC(/C=C/c1c(Cl)cccc1Cl)(Cn1cncn1)c1ccc(Oc2ccc(Cl)cc2)cc1Cl (stereo not given) | – | – | 79.3% | 50.3% | 51.8% | – | 92.4% | – | 60.7% | – | – | – | – | – | –
13 | OC(/C=C/c1ccccc1F)(Cn1cncn1)c1ccc(Oc2ccc(Cl)cc2)cc1Cl (stereo not given) | – | – | 52.1% | 61.4% | 65.9% | – | 99.3% | – | 55% | – | – | – | – | – | –
14 | OC(Cn1cncn1)(Cn1cncn1)c1ccc(Oc2ccc(F)cc2)cc1Cl | 39.5% | 21.8% | 95.9% | 95% | 100% | 49.3% | 100% | 75% | 97.5% | 90% | – | – | – | – | –
15 | CNCC(O)(Cn1cncn1)c1ccc(Oc2ccc(F)cc2)cc1Cl (stereo not given) | 72.1% | 67.2% | 100% | 100% | 100% | 74.6% | 100% | 86.7% | 100% | 68.7% | – | – | – | – | –
16 | OC(/C=C/c1ccc(Cl)c(Cl)c1)(Cn1cncn1)c1ccc(Oc2ccc(Cl)cc2)cc1Cl (stereo not given) | – | – | 64.6% | 53.6% | 57.1% | – | 100% | – | 66.7% | – | – | – | – | – | –
17 | CC1COC(Cn2cncn2)(c2ccc(Oc3ccc(Cl)cc3)cc2Cl)O1 (stereo not given) [DIFENOCONAZOLE] | 56.7% | 73.9% | 100% | 100% | 99.9% | 69.7% | 100% | 95% | 99.2% | 53.1% | – | – | – | – | –
18 | COCC(O)(Cn1cncn1)c1ccc(Oc2ccc(Cl)cc2)cc1Cl (stereo not given) | 78.6% | 63.2% | 100% | 98.7% | 100% | 99.2% | 99.1% | 98.7% | 100% | 89.9% | – | – | – | – | –
19 | OCC(O)(Cn1cncn1)c1ccc(Oc2ccc(Cl)cc2)cc1Cl (stereo not given) | – | – | 99% | 99% | 77.1% | – | 100% | – | 99% | – | – | – | – | – | –
20 | OC(/C=C/c1ccccc1)(Cn1cncn1)c1ccc(Oc2ccc(Cl)cc2)cc1Cl (stereo not given) | – | – | 67.9% | 64.3% | 68.7% | – | 100% | – | 81.2% | – | – | – | – | – | –
21 | COc1ccc(/C=C/C(O)(Cn2cncn2)c2ccc(Oc3ccc(Cl)cc3)cc2Cl)cc1 (stereo not given) | – | – | 64.5% | 61.4% | 55.4% | – | 91.3% | – | 55% | – | – | – | – | – | –
22 | Cc1ccc(/C=C/C(O)(Cn2cncn2)c2ccc(Oc3ccc(Cl)cc3)cc2Cl)cc1 (stereo not given) | – | – | 59.3% | 51.8% | 60.2% | – | 95% | – | 63.2% | – | – | – | – | – | –
23 | CC(O)(Cn1cncn1)c1ccc(Oc2ccc(F)cc2)cc1Cl (stereo not given) | 37.5% | 0% | 100% | 98% | 99% | 48.7% | 99% | 20% | 100% | 17.9% | – | – | – | – | –
24 | CONCC(O)(Cn1cncn1)c1ccc(Oc2ccc(Cl)cc2)cc1Cl (stereo not given) | 55.3% | 18.2% | 100% | 97.3% | 100% | 84.2% | 98.4% | 61.3% | 100% | 0% | – | – | – | – | –
25 | CC(O)(Cn1cncn1)c1ccc(Oc2ccc(Cl)cc2)cc1Cl (stereo not given) | – | – | 100% | 100% | 85.3% | – | 100% | – | 78.2% | – | – | – | – | – | –
26 | OC(CN1CCOCC1)(Cn1cncn1)c1ccc(Oc2ccc(Cl)cc2)cc1Cl (stereo not given) | – | – | 65.2% | 78.3% | 34.4% | – | 60% | – | 55.2% | – | – | – | – | – | –
27 | OC(Cn1cncn1)(Cn1nnc2ccccc21)c1ccc(Oc2ccc(Cl)cc2)cc1Cl (stereo not given) | – | – | 55.6% | 45.4% | 48.7% | – | 62.7% | – | 53.3% | – | – | – | – | – | –
28 | CSCC(O)(Cn1cncn1)c1ccc(Oc2ccc(Cl)cc2)cc1Cl (stereo not given) | – | – | 100% | 37.2% | 78.9% | – | 82.4% | – | 83.7% | – | – | – | – | – | –
29 | CCNCC(O)(Cn1cncn1)c1ccc(Oc2ccc(Cl)cc2)cc1Cl (stereo not given) | – | – | 75.4% | 56.8% | 86.9% | – | 61.4% | – | 63.8% | – | – | – | – | – | –
